ChEMBL document CHEMBL1201862, “PubChem BioAssay data set” (2004)
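1) Cells in 96-well plates. 2) Compound, 48 h, 5 concentrations. 3) Linear interpolation between surrounding doses. 4) Unreached endpoint = highest concentration. At the GI50, growth is halved.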 Active and inactive are the calls of the source. Cut-off read from the data, not from the text of the source: active = GI50 up to about 1.1 µM and inactive = higher.

Assays:
Test in all cases: inhibition of tumour cell growth, NCI panel, 48 h
CAKI-1 = test system: CAKI-1
COLO 205 = test system: COLO 205
SF-539 = test system: SF-539
SNB-75 = test system: SNB-75
NCI-H23 = test system: NCI-H23
A498 = test system: A498
UO-31 = test system: UO-31
DLD-1 = test system: DLD-1
SR = test system: SR
ACHN = test system: ACHN
MOLT-4 = test system: MOLT-4
NCI-H522 = test system: NCI-H522

| SMILES | GI50 (CAKI-1) | GI50 (COLO 205) | GI50 (SF-539) | GI50 (SNB-75) | GI50 (NCI-H23) | GI50 (A498) | GI50 (UO-31) | GI50 (DLD-1) | GI50 (SR) | GI50 (ACHN) | GI50 (MOLT-4) | GI50 (NCI-H522) |
| --- | --- | --- | --- | --- | --- | --- | --- | --- | --- | --- | --- | --- |
| COc1ccc(C(=O)C(C(=O)C(=O)NC2C3CC4CC(C3)CC2C4)c2ccc(OC)cc2)cc1 (stereo not given) | > 100 µM (inactive) | > 100 µM (inactive) | > 100 µM (inactive) | 16.6 µM (inactive) | > 100 µM (inactive) | > 100 µM (inactive) | > 100 µM (inactive) | > 100 µM (inactive) | > 100 µM (inactive) | > 100 µM (inactive) | > 100 µM (inactive) | > 100 µM (inactive) |
| CC1=C(C(=O)NCc2ccccc2)C(c2ccco2)C(C(=O)NCc2ccccc2)=C(C)N1 | 57.5 µM (inactive) | > 100 µM (inactive) | > 100 µM (inactive) | > 100 µM (inactive) | > 100 µM (inactive) | > 100 µM (inactive) | > 100 µM (inactive) | > 100 µM (inactive) | > 100 µM (inactive) | 31.5 µM (inactive) | 23 µM (inactive) | 85.1 µM (inactive) |
| CN1C2CCC1/C(=C/c1cccc3c1OCO3)C(=O)/C2=C\c1cccc2c1OCO2 | – | > 100 µM (inactive) | – | 11.1 µM (inactive) | > 100 µM (inactive) | – | > 100 µM (inactive) | > 100 µM (inactive) | > 100 µM (inactive) | > 100 µM (inactive) | > 100 µM (inactive) | – |
| O=C(CCc1ccccc1)CC1OC(=O)C(Cl)=C1Cl (stereo not given) | 29.5 µM (inactive) | 17.2 µM (inactive) | 31 µM (inactive) | 53.6 µM (inactive) | 19.1 µM (inactive) | 34 µM (inactive) | 19.3 µM (inactive) | 18 µM (inactive) | 30.5 µM (inactive) | 20.5 µM (inactive) | 33 µM (inactive) | 14.5 µM (inactive) |
| O=C(CC1Sc2ccccc2NC1=O)Nc1ccc(Cl)cc1 (stereo not given) | > 100 µM (inactive) | > 100 µM (inactive) | 50.2 µM (inactive) | 13.1 µM (inactive) | 46.2 µM (inactive) | > 100 µM (inactive) | > 100 µM (inactive) | > 100 µM (inactive) | > 100 µM (inactive) | 26.5 µM (inactive) | > 100 µM (inactive) | > 100 µM (inactive) |
| CCOC(=O)C1S/C(=N\c2ccc(Cl)cc2Cl)N=C1C (stereo not given) | 66.2 µM (inactive) | > 100 µM (inactive) | 53 µM (inactive) | 26.1 µM (inactive) | 39.4 µM (inactive) | 39.3 µM (inactive) | > 100 µM (inactive) | 73.6 µM (inactive) | – | 95.1 µM (inactive) | – | 35.9 µM (inactive) |
| O=C1c2ccccc2C(O)(C(=O)O)C1(O)CC=C(Cl)Cl (stereo not given) | > 125 µM (inactive) | > 125 µM (inactive) | > 125 µM (inactive) | > 125 µM (inactive) | > 125 µM (inactive) | > 125 µM (inactive) | > 112 µM (inactive) | > 125 µM (inactive) | – | – | > 125 µM (inactive) | > 125 µM (inactive) |
| C=CC1(C)CCC2=C(CCC3C(C)(C(=O)OC)CCCC23C)C1=O (stereo not given) | 30.3 µM (inactive) | 19.1 µM (inactive) | – | – | 19.5 µM (inactive) | 14.8 µM (inactive) | 20.8 µM (inactive) | 18.5 µM (inactive) | 19 µM (inactive) | 17.7 µM (inactive) | – | 15.1 µM (inactive) |
| Cc1c2ccncc2c(C)c2c1[nH]c1ccccc12 [ELLIPTECINE] | 1.21 µM (inactive) | 0.502 µM (active) | 0.867 µM (active) | 1.47 µM (inactive) | 0.656 µM (active) | 0.794 µM (active) | 1.95 µM (inactive) | 0.509 µM (active) | – | – | 0.256 µM (active) | 1.16 µM (inactive) |
| COC(=O)C1=C(C)N2CCOC2CC1c1ccccc1 (stereo not given) | > 100 µM (inactive) | > 100 µM (inactive) | > 100 µM (inactive) | > 100 µM (inactive) | 84.1 µM (inactive) | – | > 100 µM (inactive) | 78.3 µM (inactive) | 78.9 µM (inactive) | > 100 µM (inactive) | 77.4 µM (inactive) | – |
| Clc1ccccc1C(n1ncc2ccccc21)n1ncc2ccccc21 | 30.6 µM (inactive) | – | 56.9 µM (inactive) | 17 µM (inactive) | 24 µM (inactive) | 35.6 µM (inactive) | 31.3 µM (inactive) | 40.5 µM (inactive) | 27 µM (inactive) | 56.5 µM (inactive) | 18.9 µM (inactive) | 15.1 µM (inactive) |
| O=C(NCCCl)O/N=C/c1cccnc1 | > 100 µM (inactive) | > 100 µM (inactive) | > 100 µM (inactive) | 61 µM (inactive) | > 100 µM (inactive) | > 100 µM (inactive) | > 100 µM (inactive) | > 100 µM (inactive) | – | – | > 100 µM (inactive) | > 100 µM (inactive) |
| CC1CC(C)(O)C2C3(C)CCCC2(COC3=O)C12CCC1(CCOC1=O)O2 (stereo not given) | > 250 µM (inactive) | > 250 µM (inactive) | > 250 µM (inactive) | > 250 µM (inactive) | > 250 µM (inactive) | > 163 µM (inactive) | > 238 µM (inactive) | > 250 µM (inactive) | – | – | > 250 µM (inactive) | > 250 µM (inactive) |
| OCC1OC(n2cnc3c2NC=NC[C@H]3O)C(O)C1O (stereo not given in full) | 226 µM (inactive) | > 450 µM (inactive) | > 450 µM (inactive) | 412 µM (inactive) | 445 µM (inactive) | 208 µM (inactive) | 282 µM (inactive) | 300 µM (inactive) | – | – | 318 µM (inactive) | 312 µM (inactive) |
| CC(C)c1oc(=O)cc2c1C(O)C1OC(=O)C3(C)C(O)C4OC4C2(C)C13 (stereo not given) [NAGILACTONE] | 2.08 µM (inactive) | 1.13 µM (inactive) | 0.989 µM (active) | 1.92 µM (inactive) | 1.36 µM (inactive) | 0.569 µM (active) | 4.52 µM (inactive) | 1.23 µM (inactive) | – | – | 0.83 µM (active) | 1.15 µM (inactive) |
| CC(=O)Nc1ccc(C(=O)NN2C(=O)C(Cl)C2c2cccc([N+](=O)[O-])c2)cc1 (stereo not given) | – | > 100 µM (inactive) | > 100 µM (inactive) | > 100 µM (inactive) | > 100 µM (inactive) | – | > 100 µM (inactive) | > 100 µM (inactive) | > 100 µM (inactive) | > 100 µM (inactive) | > 100 µM (inactive) | > 100 µM (inactive) |
| NC1C(O)C(O)C(CO)OC1n1cc(F)c(=O)[nH]c1=O (stereo not given) | > 100 µM (inactive) | > 100 µM (inactive) | – | 91.2 µM (inactive) | > 100 µM (inactive) | – | – | > 100 µM (inactive) | > 100 µM (inactive) | > 100 µM (inactive) | > 100 µM (inactive) | > 100 µM (inactive) |
| O=C(O)C(Cc1cccs1)NC(=O)C(F)(F)F (stereo not given) | > 100 µM (inactive) | > 100 µM (inactive) | > 100 µM (inactive) | > 100 µM (inactive) | > 100 µM (inactive) | > 100 µM (inactive) | > 100 µM (inactive) | > 100 µM (inactive) | – | – | > 100 µM (inactive) | > 100 µM (inactive) |
| CCOC(=O)CSC(=O)NCCCl | > 100 µM (inactive) | > 100 µM (inactive) | > 100 µM (inactive) | > 100 µM (inactive) | > 100 µM (inactive) | > 100 µM (inactive) | > 100 µM (inactive) | > 100 µM (inactive) | – | > 100 µM (inactive) | – | > 100 µM (inactive) |
| COC(=O)c1sc(=O)n(-c2ccccc2)c1SCc1ccccc1 | – | > 100 µM (inactive) | > 100 µM (inactive) | > 100 µM (inactive) | > 100 µM (inactive) | – | > 100 µM (inactive) | > 100 µM (inactive) | > 100 µM (inactive) | > 100 µM (inactive) | > 100 µM (inactive) | > 100 µM (inactive) |
| Clc1cc2nsnc2c(Cl)n1 | 10.8 µM (inactive) | 15.3 µM (inactive) | 22.9 µM (inactive) | – | 19.1 µM (inactive) | > 100 µM (inactive) | 20.6 µM (inactive) | 20.3 µM (inactive) | – | 32.5 µM (inactive) | 14.2 µM (inactive) | 18.4 µM (inactive) |
